Measurements published in publication PMC9304322, “Targeting retinoic acid receptor alpha-corepressor interaction activates chaperone-mediated autophagy and protects against retinal degeneration” (Nature Communications, 2022).
“And” between values parts separate entries of the source, which are not always exact repeats. Equal values may be shown once. Read-outs that look alike come from different tables or passages of the source.

Test: Pharmacokinetic analysis, plasma and brain;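 for Fig. 3a level, MEAN: plasma concentration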;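 for Fig. 3a level, single animals 1-3: plasma concentration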;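 for Fig. 3b level, MEAN: brain concentration in ng/g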;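 for Fig. 3b level, single animals 1-3: brain concentration in ng/g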
Format: in vivo, ICR (CD-1) male mice
Parameters: Fig. 3a level, single animals 1-3 / Fig. 3a level, MEAN / Fig. 3b level, single animals 1-3 / Fig. 3b level, MEAN: unit not given here
Details: for Kp at 0.083 h / Kp at 0.25 h / Kp at 0.5 h / Kp at 1 h / Kp at 2 h / Kp at 4 h / Kp at 8 h / Kp at 24 h / half-life: male, ICR (CD-1), mouse; for half-life: mice
Experimental: ICR (CD-1) male mice were fasted at least three hours and water was available ad libitum before the study. Animals were housed in a controlled environment, target conditions: temperature 18 to 29 °C, relative humidity 30 to 70%. Temperature and relative humidity was monitored daily. An electronic time-controlled lighting system was used to provide a 12 h light/12 h dark cycle. 3 mice for each indicated time point were administered 30 mg/Kg CA39 or CA77 by oral gavage or 1 mg/Kg CA39 or CA77 by intravenous injection using 30% PEG-400, 65% D5W (5% dextrose in water), 5% Tween-80 vehicle. Mice were sacrificed, and brain samples were harvested at […], 0.25 h, 0.5 h, 1 h, 2 h, 4 h, 8 h, 24 h, and analyzed for CA39 or CA77 levels using LC-MS/MS. Pharmacokinetics parameters were calculated using Phoenix WinNonlin 6.3. Experiments performed at SIMM-SERVIER joint Biopharmacy Laboratory.

Clc1ccc2c(c1)OCC(c1ccc(-c3ccccc3)cc1)=N2 [CA39]
Fig. 3a level, MEAN (IV, Time 0.083 h): 61.1254 | Fig. 3b level, MEAN (IV, Time 0.083 h): 61.1254 | Fig. 3a level, MEAN (IV, Time 0.25 h): 57.4762 | Fig. 3a level, single animals 1-3 (IV, Time 0.25 h): 71.3655 and 52.5276 and 48.5355 | Fig. 3b level, MEAN (IV, Time 0.25 h): 421.667 | Fig. 3b level, single animals 1-3 (IV, Time 0.25 h): 231 and 301 and 733 | Fig. 3a level, MEAN (IV, Time 0.5 h): 96.4163 | Fig. 3a level, single animals 1-3 (IV, Time 0.5 h): 97.156 and 95.5316 and 96.5614 | Fig. 3b level, single animals 1-3 (IV, Time 0.5 h): 253.229 and 219.924 and 96.4385 | Fig. 3a level, single animals 1-3 (IV, Time 1 h): 65.9772 and 7.434 and 72.9585 | Fig. 3b level, single animals 1-3 (IV, Time 1 h): 838.595 and 293.717 and 133.533 | Fig. 3a level, MEAN (IV, Time 2 h): 127.026 | Fig. 3a level, single animals 1-3 (IV, Time 2 h): 125.63 and 157.282 and 98.1671 | Fig. 3b level, MEAN (IV, Time 2 h): 775.11 | Fig. 3b level, single animals 1-3 (IV, Time 2 h): 875.96 and 812.85 and 636.52 | Fig. 3a level, MEAN (IV, Time 4 h): 46.5654 | Fig. 3a level, single animals 1-3 (IV, Time 4 h): 39.4404 and 55.2956 and 44.9603 | Fig. 3b level, MEAN (IV, Time 4 h): 580.088 | Fig. 3b level, single animals 1-3 (IV, Time 4 h): 625.12 and 582.925 and 532.22 | Fig. 3a level, single animals 1-3 (IV, Time 8 h): 53.1345 and 36.7923 and 35.4264 | Fig. 3b level, single animals 1-3 (IV, Time 8 h): 688.34 and 475.587 and 740.905 | Fig. 3a level, MEAN (IV, Time 24 h): 8.834 | Fig. 3a level, single animals 1-3 (IV, Time 24 h): 7.122 and 12.7302 and 6.65 | Fig. 3b level, single animals 1-3 (IV, Time 24 h): 137.514 and 156.133 and 197.201 | B/P, Brian/Plasma (P.O., Time 0.25 h, individual animals): 3.427 and 5.487 | B/P, Brian/Plasma (P.O., Time 0.5 h, individual animals): 1.74 and 1.607 | B/P, Brian/Plasma (P.O., Time 1 h, individual animals): 6.477 and 4.807 | B/P, Brian/Plasma (P.O., Time 2 h, individual animals): 7.798 and 6.806 | B/P, Brian/Plasma (P.O., Time 4 h, individual animals): 5.185 and 9.171 and 14.1075 | B/P, Brian/Plasma (P.O., Time 8 h, individual animals): 9.709 and 14.5255 | B/P, Brian/Plasma (P.O., Time 24 h, individual animals): 21.0683 | Fig. 3b level, MEAN (PO, Time 0.25 h): 110.007 | Fig. 3b level, single animals 1-3 (PO, Time 0.25 h): 143.332 and 91.145 and 95.5425 | Fig. 3b level, MEAN (PO, Time 0.5 h): 246.705 | Fig. 3b level, single animals 1-3 (PO, Time 0.5 h): 250.188 and 244.993 and 244.933 | Fig. 3b level, single animals 1-3 (PO, Time 1 h): 302.13 and 49.5585 and 266.305 | Fig. 3a level, MEAN (PO, Time 2 h): 103.157 | Fig. 3a level, single animals 1-3 (PO, Time 2 h): 111.712 and 104.237 and 93.5216 | Fig. 3b level, MEAN (PO, Time 2 h): 582.568 | Fig. 3b level, single animals 1-3 (PO, Time 2 h): 673.81 and 487.02 and 586.875 | Fig. 3a level, MEAN (PO, Time 4 h): 73.9526 | Fig. 3a level, single animals 1-3 (PO, Time 4 h): 120.568 and 63.5639 and 37.7259 | Fig. 3b level, MEAN (PO, Time 4 h): 609.462 | Fig. 3b level, single animals 1-3 (PO, Time 4 h): 583.44 and 598.755 and 646.19 | Fig. 3a level, single animals 1-3 (PO, Time 8 h): 41.4288 and 48.9846 and 51.0072 | Fig. 3b level, single animals 1-3 (PO, Time 8 h): 620.035 and 487.115 and 529.995 | Fig. 3a level, MEAN (PO, Time 24 h): 11.2914 | Fig. 3a level, single animals 1-3 (PO, Time 24 h): 11.8674 and 7.411 and 14.5959 | Fig. 3b level, MEAN (PO, Time 24 h): 118.958 | Fig. 3b level, single animals 1-3 (PO, Time 24 h): 104.574 and 178.19 and 74.11 | B/P, Brian/Plasma (i.v., Time 0.083 h, individual animals): 1.236 and 1.666 | B/P, Brian/Plasma (i.v., Time 0.25 h, individual animals): 1.735 and 1.969 | B/P, Brian/Plasma (i.v., Time 0.5 h, individual animals): 2.565 and 2.537 | B/P, Brian/Plasma (i.v., Time 1 h, individual animals): 6.667 and 3.6501 | B/P, Brian/Plasma (i.v., Time 2 h, individual animals): 3.096 and 5.978 | B/P, Brian/Plasma (i.v., Time 4 h, individual animals): 10.8283 and 14.3725 | B/P, Brian/Plasma (i.v., Time 8 h, individual animals): 13.2396 and 14.9605 | B/P, Brian/Plasma (i.v., Time 24 h, individual animals): 13.9974 | Kp at 0.083 h (brain, iv, 1 mg/Kg, i.v., Time 0.083 h, individual animals, read-out: B/P, Brian/Plasma): 1.37 | Kp at 0.083 h (brain, iv, 1 mg/Kg, i.v., Time 0.083 h, mean, read-out: B/P, Brian/Plasma, Mean): 1.42 | Kp at 0.25 h (brain, iv, 1 mg/Kg, i.v., Time 0.25 h, individual animals, read-out: B/P, Brian/Plasma): 2.01 | Kp at 0.25 h (brain, iv, 1 mg/Kg, i.v., Time 0.25 h, mean, read-out: B/P, Brian/Plasma, Mean): 1.9 | Kp at 0.5 h (brain, iv, 1 mg/Kg, i.v., Time 0.5 h, individual animals, read-out: B/P, Brian/Plasma): 2.58 | Kp at 0.5 h (brain, iv, 1 mg/Kg, i.v., Time 0.5 h, mean, read-out: B/P, Brian/Plasma, Mean): 2.56 | Kp at 1 h (brain, iv, 1 mg/Kg, i.v., Time 1 h, individual animals, read-out: B/P, Brian/Plasma): 4.58 | Kp at 1 h (brain, iv, 1 mg/Kg, i.v., Time 1 h, mean, read-out: B/P, Brian/Plasma, Mean): 4.11 | Kp at 2 h (brain, iv, 1 mg/Kg, i.v., Time 2 h, individual animals, read-out: B/P, Brian/Plasma): 5.36 | Kp at 2 h (brain, iv, 1 mg/Kg, i.v., Time 2 h, mean, read-out: B/P, Brian/Plasma, Mean): 4.81 | Kp at 4 h (brain, iv, 1 mg/Kg, i.v., Time 4 h, individual animals, read-out: B/P, Brian/Plasma): 14.8 | Kp at 4 h (brain, iv, 1 mg/Kg, i.v., Time 4 h, mean, read-out: B/P, Brian/Plasma, Mean): 13.3 | Kp at 8 h (brain, iv, 1 mg/Kg, i.v., Time 8 h, individual animals, read-out: B/P, Brian/Plasma): 11.7 | Kp at 8 h (brain, iv, 1 mg/Kg, i.v., Time 8 h, mean, read-out: B/P, Brian/Plasma, Mean): 13.3 | Kp at 24 h (brain, iv, 1 mg/Kg, i.v., Time 24 h, individual animals, read-out: B/P, Brian/Plasma): 14.7 | Kp at 24 h (brain, iv, 1 mg/Kg, i.v., Time 24 h, mean, read-out: B/P, Brian/Plasma, Mean): 14.2 | Kp at 0.25 h (brain, po, 30 mg/Kg, P.O., Time 0.25 h, individual animals, read-out: B/P, Brian/Plasma): 4.01 | Kp at 0.25 h (brain, po, 30 mg/Kg, P.O., Time 0.25 h, mean, read-out: B/P, Brian/Plasma, Mean): 4.31 | Kp at 0.5 h (brain, po, 30 mg/Kg, P.O., Time 0.5 h, individual animals, read-out: B/P, Brian/Plasma): 1.82 | Kp at 0.5 h (brain, po, 30 mg/Kg, P.O., Time 0.5 h, mean, read-out: B/P, Brian/Plasma, Mean): 1.72 | Kp at 1 h (brain, po, 30 mg/Kg, P.O., Time 1 h, individual animals, read-out: B/P, Brian/Plasma): 5.37 | Kp at 1 h (brain, po, 30 mg/Kg, P.O., Time 1 h, mean, read-out: B/P, Brian/Plasma, Mean): 5.55 | Kp at 2 h (brain, po, 30 mg/Kg, P.O., Time 2 h, individual animals, read-out: B/P, Brian/Plasma): 7.84 | Kp at 2 h (brain, po, 30 mg/Kg, P.O., Time 2 h, mean, read-out: B/P, Brian/Plasma, Mean): 7.48 | Kp at 4 h (brain, po, 30 mg/Kg, P.O., Time 4 h, mean, read-out: B/P, Brian/Plasma, Mean): 9.49 | Kp at 8 h (brain, po, 30 mg/Kg, P.O., Time 8 h, individual animals, read-out: B/P, Brian/Plasma): 16.6 | Kp at 8 h (brain, po, 30 mg/Kg, P.O., Time 8 h, mean, read-out: B/P, Brian/Plasma, Mean): 13.6 | Kp at 24 h (brain, po, 30 mg/Kg, P.O., Time 24 h, individual animals, read-out: B/P, Brian/Plasma): 11.6 | Kp at 24 h (brain, po, 30 mg/Kg, P.O., Time 24 h, mean, read-out: B/P, Brian/Plasma, Mean): 17.9 | half-life (brain, IV 1 mg/kg, read-out: Half-life in brain (converted)): 8 h | half-life (brain, PO 30 mg/kg, read-out: Half-life in brain (converted)): 10 h | half-life (plasma, IV 1 mg/kg, read-out: Half-life in plasma (converted)): 8.2 h | half-life (plasma, PO 30 mg/kg, read-out: Half-life in plasma (converted)): 7.5 h
